Experimental data reported in patent US11591355B2 (Peloton Therapeutics, Inc., priority 2017, dated 2023).

Tests used:
[1] = biological target: T1, CD73 on U138 human neuroglioma cells (Homo sapiens, UniProt P21589); experiment: CD73 Cell-Based Assay; settings: U138 cells, AMP substrate, 2 hours at 37° C., inorganic phosphate by malachite green
T1 construct: U138 cells were obtained from ATCC and cultured in DMEM with 10% FBS; host or cells: U138 human neuroglioma cells
T1 sequence (P21589 27-549): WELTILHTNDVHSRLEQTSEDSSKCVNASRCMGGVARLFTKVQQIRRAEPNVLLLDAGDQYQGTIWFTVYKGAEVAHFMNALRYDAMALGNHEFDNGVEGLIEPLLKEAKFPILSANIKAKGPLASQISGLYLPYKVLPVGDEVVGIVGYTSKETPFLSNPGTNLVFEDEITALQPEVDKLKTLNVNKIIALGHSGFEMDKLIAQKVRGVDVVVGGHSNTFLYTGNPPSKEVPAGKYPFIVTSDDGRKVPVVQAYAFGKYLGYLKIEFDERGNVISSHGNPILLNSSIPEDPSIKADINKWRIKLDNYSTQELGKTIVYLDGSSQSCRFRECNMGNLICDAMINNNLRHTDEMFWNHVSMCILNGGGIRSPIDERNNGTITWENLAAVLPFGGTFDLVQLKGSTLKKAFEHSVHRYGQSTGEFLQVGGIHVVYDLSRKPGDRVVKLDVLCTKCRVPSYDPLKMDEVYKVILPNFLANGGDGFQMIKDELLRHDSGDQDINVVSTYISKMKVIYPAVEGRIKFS
In short: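 Whole U138 cells washed free of phosphate were incubated with 200 μM AMP (mixture concentration before equal-volume addition) plus compound in HEPES-buffered saline, pH 7.4, for 2 h at 37 °C, 5% CO2. Adenosine-forming activity read as inorganic phosphate released into supernatant by malachite green.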

Human CD73 = biological target: T2, Human CD73 (Homo sapiens, UniProt P21589); experiment: CD73 Enzyme Assay; format: biochemical; settings: 0.25 nM hCD73, 25 μM AMP, kinetic read at 360 nm; read-out: CD73 Enzyme Assay IC50
T2 construct: purchased R&D Systems; host or cells: CHO cells
T2 sequence (P21589 27-549): T1 sequence (P21589 27-549)

| IC50 [1] [nM] | IC50 (Human CD73) [nM] | Structure (SMILES) |
| --- | --- | --- |
| 10 to 100 | 100 to 1000 | CC(C)(C)C(=O)OCOP(=O)(COC[C@H]1O[C@@H](n2ccc3c(N4CC5CCCC5C4)nc(Cl)nc32)[C@H](O)[C@@H]1O)OCOC(=O)C(C)(C)C (stereo partly drawn) [Compound 203, [[(2R,3S,4R,5R)-5-[4-(3,3a,4,5,6,6a-hexa-hydro-1H-cyclopenta-[c]pyrrol-2-yl)-2-chloro-pyrrolo[2,3-d]-pyrimidin-7-yl]-3,4-dihydroxy-tetrahydro-furan-2-yl]methoxy-methyl-(2,2-dimethyl-propanoyloxymethoxy)-phosphoryl]oxymethyl 2,2-dimethylpropanoate] |
| 10 to 100 | 10 to 100 | C[C@H](c1ccccc1)N(C)c1nc(C#N)nc2c1ncn2[C@@H]1O[C@H](COCP(=O)(O)O)[C@@H](O)[C@H]1O [Compound 113] |
| 10 to 100 | < 10 | N#Cc1nc(N2CCCCC2)c2ccn([C@@H]3O[C@H](COCP(=O)(O)O)[C@@H](O)[C@H]3O)c2n1 [Compound 143, [(2R,3S,4R,5R)-5-[2-cyano-4-(1-piperidyl)-pyrrolo[2,3-d]-pyrimidin-7-yl]-3,4-dihydroxy-tetrahydro-furan-2-yl]methoxy-methylphosphonic acid] |
| < 10 | < 10 | C[C@H](c1ccccc1)N(C)c1nc(Cl)nc2c1ccn2[C@@H]1O[C@H](CS(=O)(=O)CP(=O)(O)O)[C@@H](O)[C@H]1O [Compound 157, [(2S,3S,4R,5R)-5-[2-chloro-4-[methyl-[(1R)-1-phenylethyl]-amino]pyrrolo[2,3-d]-pyrimidin-7-yl]-3,4-dihydroxy-tetrahydro-furan-2-yl]methyl-sulfonylmethylphos-phonic acid] |
| < 10 | 10 to 100 | O=P(O)(O)COC[C@H]1O[C@@H](n2ccc3c(NC4CCCC4)nc(OCCCO)nc32)[C@H](O)[C@@H]1O [Compound 258, [(2R,3S,4R,5R)-5-[4-(cyclopentylamino)-2-(3-hydroxypropoxy)-pyrrolo[2,3-d]pyrimidin-7-yl]-3,4-dihydroxy-tetrahydrofuran-2-yl]-methoxymethylphos-phonic acid] |
| < 10 | < 10 | C[C@@H](O)COc1nc(NC2CCCC2)c2ccn([C@@H]3O[C@H](COCP(=O)(O)O)[C@@H](O)[C@H]3O)c2n1 [Compound 261, [(2R,3S,4R,5R)-5-[4-(cyclopentylamino)-2-[(2R)-2-hydroxy-propoxy]pyrrolo[2,3-d]pyrimidin-7-yl]-3,4-dihydroxy-tetrahydro-furan-2-yl]methoxy-methylphosphonic acid] |
| < 10 | < 10 | O=P(O)(O)COC[C@H]1O[C@@H](c2ccc3c(NC4CCCC4)nc(Cl)nn23)[C@H](O)[C@@H]1O [Compound 298, [(2R,3S,4R,5S)-5-[2-chloro-4-(cyclopentyl-amino)pyrrolo[2,1-f]-[1,2,4]triazin-7-yl]-3,4-dihydroxy-tetrahydro-furan-2-yl]methoxy-methylphosphonic acid] |
| < 10 | < 10 | C[C@@H](Nc1nc(Cl)nc2c1ccn2[C@@H]1O[C@H](CS(=O)(=O)CP(=O)(O)O)[C@@H](O)[C@H]1O)c1ccc(Cl)cc1 [Compound 179, [(2S,3S,4R,5R)-5-[2-chloro-4-[[(1R)-1-(4-chlorophenyl)ethyl]-amino]pyrrolo[2,3-d]-pyrimidin-7-yl]-3,4-dihydroxy-tetrahydro-furan-2-yl]methyl-sulfonylmethylphos-phonic acid] |
| < 10 | 10 to 100 | C[C@H](Nc1nc(C#N)nc2c1cnn2[C@@H]1O[C@H](CS(=O)(=O)CP(=O)(O)O)[C@@H](O)[C@H]1O)c1ccc(F)cc1 [Compound 307, [(2S,3S,4R,5R)-5-[6-cyano-4-[[(1S)-1-(4-fluorophenyl)ethyl]-amino]pyrazolo[3,4-d]pyrimidin-1-yl]-3,4-dihydroxy-tetrahydro-furan-2-yl]methyl-sulfonylmethylphos-phonic acid] |
| 10 to 100 | < 10 | C[C@H](c1ccccc1)N(C)c1nc(Cl)nc2c1ccn2[C@@H]1O[C@H](COCP(=O)(O)OCOC(=O)C(C)(C)C)[C@@H](O)[C@H]1O [Compound 132, ((((((2R,3S,4R,5R)-5-(2-chloro-4-(methyl((R)-1-phenylethyl)amino)-7H-pyrrolo[2,3-d]pyrimidin-7-yl)-3,4-dihydroxytetrahydrofuran-2-yl)methoxy)methyl)(hydroxy)phosphoryl)oxy)methyl pivalate] |
| 10 to 100 | 10 to 100 | O=P(O)(O)COC[C@H]1O[C@@H](n2ccc3c(C4CCCC4)nc(Cl)nc32)[C@H](O)[C@@H]1O [Compound 213, [(2R,3S,4R,5R)-5-(2-chloro-4-cyclopentyl-pyrrolo[2,3-d]-pyrimidin-7-yl)-3,4-dihydroxy-tetrahydro-furan-2-yl]methoxy-methylphosphonic acid] |
| 10 to 100 | 10 to 100 | CCOc1nc(NC2CCCC2)c2ccn([C@@H]3O[C@H](COCP(=O)(O)O)[C@@H](O)[C@H]3O)c2n1 [Compound 262, [(2R,3S,4R,5R)-5-[4-(cyclopentylamino)-2-ethoxy-pyrrolo[2,3-d]-pyrimidin-7-yl]-3,4-dihydroxy-tetrahydro-furan-2-yl]methoxy-methylphosphonic acid] |
| > 1000 | > 1000 | O=P(O)(O)COC[C@H]1O[C@@H](n2cnc3c(-c4ccccc4)ncnc32)[C@H](O)[C@@H]1O [Compound 46, [(2R,3S,4R,5R)-3,4-dihydroxy-5-(6-phenylpurin-9-yl)tetrahydrofuran-2-yl]methoxymethylphosphonic acid] |
| < 10 | < 10 | O=P(O)(O)COC[C@H]1O[C@@H](n2ccc3c(NC4CCCC4)nc(C#CC4(O)CC4)nc32)[C@H](O)[C@@H]1O [Compound 276, ((((2R,3S,4R,5R)-5-(4-(cyclopentylamino)-2-((1-hydroxycyclopropyl)ethynyl)-7H-pyrrolo[2,3-d]pyrimidin-7-yl)-3,4-dihydroxytetrahydrofuran-2-yl)methoxy)methyl)phosphonic acid] |
| < 10 | < 10 | Cc1ccc([C@@H](C)Nc2nc(Cl)nc3c2ccn3[C@@H]2O[C@H](CS(=O)(=O)CP(=O)(O)O)[C@@H](O)[C@H]2O)cc1 [Compound 169, [(2S,3S,4R,5R)-5-[2-chloro-4-[[(1R)-1-(p-tolyl)ethyl]amino]-pyrrolo[2,3-d]-pyrimidin-7-yl]-3,4-dihydroxy-tetrahydro-furan-2-yl]methyl-sulfonylmethylphos-phonic acid] |
| < 10 | < 10 | N#Cc1nc(NC2CCC(F)(F)CC2)c2ccn([C@@H]3O[C@H](COCP(=O)(O)O)[C@@H](O)[C@H]3O)c2n1 [Compound 142, [(2R,3S,4R,5R)-5-[2-cyano-4-[(4,4-difluoro-cyclohexyl)amino]-pyrrolo[2,3-d]-pyrimidin-7-yl]-3,4-dihydroxy-tetrahydro-furan-2-yl]methoxy-methylphosphonic acid] |
| < 10 | < 10 | Cc1ccc([C@H](C)Nc2nc(C#N)nc3c2ccn3[C@@H]2O[C@H](COCP(=O)(O)O)[C@@H](O)[C@H]2O)cc1 [Compound 91, [(2R,3S,4R,5R)-5-[2-cyano-4-[[(1S)-1-(p-tolyl)ethyl]amino]-pyrrolo[2,3-d]-pyrimidin-7-yl]-3,4-dihydroxy-tetrahydro-furan-2-yl]methoxy-methylphosphonic acid] |
| < 10 | 10 to 100 | O=P(O)(O)COC[C@H]1O[C@@H](n2ccc3c(NC4CCC(F)(F)CC4)nc(Cl)nc32)[C@H](O)[C@@H]1O [Compound 121, [(2R,3S,4R,5R)-5-[2-chloro-4-[(4,4-difluorocyclohexyl)-amino]pyrrolo[2,3-d]-pyrimidin-7-yl]-3,4-dihydroxy-tetrahydro-furan-2-yl]methoxy-methylphosphonic acid] |
| 100 to 1000 | 100 to 1000 | Nc1nc(Cl)nc2c1ccn2[C@@H]1O[C@H](COCP(=O)(O)O)[C@@H](O)[C@H]1O [Compound 86, [(2R,3S,4R,5R)-5-(4-amino-2-chloro-pyrrolo[2,3-d]-pyrimidin-7-yl)-3,4-dihydroxy-tetrahydro-furan-2-yl]methoxy-methylphosphonic acid] |
| < 10 | < 10 | C[C@@H](c1ccccc1)N(C)c1nc(Cl)nc2c1ccn2[C@@H]1O[C@H](COCP(=O)(O)O)[C@@H](O)[C@H]1O [Compound 131, [(2R,3S,4R,5R)-5-[2-chloro-4-[methyl-[(1S)-1-phenylethyl]-amino]pyrrolo[2,3-d]-pyrimidin-7-yl]-3,4-dihydroxy-tetrahydro-furan-2-yl]methoxy-methylphosphonic acid] |
| 10 to 100 | 10 to 100 | CCNc1nc(Cl)nc2c1ccn2[C@@H]1O[C@H](COCP(=O)(O)O)[C@@H](O)[C@H]1O [Compound 98, [(2R,3S,4R,5R)-5-[2-chloro-4-(ethylamino)-pyrrolo[2,3-d]-pyrimidin-7-yl]-3,4-dihydroxy-tetrahydro-furan-2-yl]methoxy-methylphosphonic acid] |
